Consider 13 compounds from paper PMC10298979, “Assessments of Alpha-Amylase Inhibitory Potential of Tagetes Flavonoids through In Vitro, Molecular Docking, and Molecular Dynamics Simulation Studies” (International Journal of Molecular Sciences, 2023).

pIC50: −log10 of the molar value.

For one series, the target named is alpha-amylase. Nature of the series: in vitro alpha-amylase inhibition (AAI) assay, Ultra-Amylase EnzChek Assay Kit. In kind it is biochemical. From the text: The AAI capacity of T. minuta flavonoids was estimated using an Ultra-Amylase®Enz-Chek Assay Kit in line with a formerly reported method.
On the set-up of series [1]: method as in PMID 24599122, PMID 16168446. The conditions noted are these: cited from earlier work; for IC50 for DPPH: radical scavenging. In general terms: DPPH is a stable violet radical that fades when it is reduced.
Details of series [2]: method as in PMID 24599122, PMID 16168446. The conditions noted are these: cited from earlier work.
Series [3] concerns PE (phenylephrine)-precontracted thoracic aortic rings. The arrangement: method as in PMID 23763258. The conditions noted are these: PE-precontracted thoracic aortic rings in rats; cited from earlier work.
The conditions of series [4]: no reference given; cited from earlier work.

What is called pIC50 is the negative decadic logarithm of the IC50, by convention in mol/L. `COc1c(O)cc2oc(-c3ccc(O)c(O)c3)c(O)c(=O)c2c1O` [Compound 8, patuletin] had a pIC50 against alpha-amylase of 4.87.

With `O=C(C=Cc1ccc(O)c(O)c1)OCC1OC(Oc2c(O)cc3oc(-c4ccc(O)c(O)c4)c(O)c(=O)c3c2O)C(O)C(O)C1O` [Compound 1, quercetagetin-6-O-(6-O-caffeoyl-β-D-glucopyranoside)], the pIC50 against alpha-amylase is 5.00. The DPPH scavenging in series [1] is recorded as 89.1%.

`COc1cc2oc(-c3ccc(O)c(O)c3)c(O)c(=O)c2c(O)c1O[C@@H]1O[C@H](CO)[C@@H](O)[C@H](O)[C@H]1O` [Compound 6, quercetagetin-7-methoxy-6-O-β-D-glucopyranoside] showed a pIC50 on alpha-amylase of 5.01.

With `O=c1c(O)c(-c2ccc(O)c(O)c2)oc2cc(O)c(OC3OC(CO)C(O)C(O)C3O)c(O)c12` [Compound 3, quercetagetin-6-O-β-D-glucopyranoside], the pIC50 against alpha-amylase was 5.05.

For `COc1c(OC2OC(CO)C(O)C(O)C2O)cc2oc(-c3ccc(O)c(O)c3)c(O)c(=O)c2c1O` [Compound 5, patuletin-7-O-β-D-glucopyranoside], the pIC50 at alpha-amylase is 5.09. Besides, the “IC50 for DPPH” value in series [1] is 12.1 µg/mL.

As to `O=c1c(O)c(-c2ccc(O)c(O)c2)oc2cc(OC3OC(CO)C(O)C(O)C3O)c(O)c(O)c12` [Compound 2, quercetagetin-7-O-β-D-glucopyranoside], in series [2], the “%inhibition for superoxide anion” value was 82.85%. The compound further gave a pIC50 against alpha-amylase of 5.11. Also, the vasorelaxation result in series [3] is “vasorelaxation potential”. Besides, in series [1], the “IC50 for DPPH” value is 3.92 µg/mL.

`COc1c(-c2ccc(O)c(O)c2)oc2cc(O)cc(O)c2c1=O` [Compound 10, quercetin-3-methyl ether]: on alpha-amylase, the pIC50 was 4.57.

`COc1c(-c2ccc(O)c(O)c2)oc2c(O)c(O)c(O[C@@H]3O[C@H](CO)[C@@H](O)[C@H](O)[C@H]3O)c(O)c2c1=O` [Compound 7, tagenol B] showed a pIC50 against alpha-amylase of 4.97.

In turn, `COc1ccc(-c2oc3c(O)c(O)c(OC)c(O)c3c(=O)c2OC)cc1O` [Compound 12, tagenol A] showed a negative logarithm of the IC50 (pIC50) against alpha-amylase of 4.83.

Consider `C[C@H]1O[C@H](O[C@H]2[C@H](O)[C@@H](O)[C@@H](O[C@H]3[C@H](O)[C@@H](O)C(O)O[C@@H]3CO)O[C@@H]2CO)[C@H](O)[C@@H](O)[C@@H]1N[C@H]1C=C(CO)[C@@H](O)[C@H](O)[C@H]1O` (stereo partly shown) [Acarbose], for which, in series [4], the “oral dose absorbed into the bloodstream” value is 2% and the “oral dose eliminated through fecal excretion” value was “approximately 51%”.

As for `COc1c(O)cc2oc(-c3ccc(O)c(O)c3)c(OC)c(=O)c2c1O` [Compound 11, quercetin-3,6-dimethyl ether], the pIC50 against alpha-amylase is 4.66.

`COc1cc2oc(-c3ccc(O)c(O)c3)c(OC)c(=O)c2c(O)c1O[C@@H]1O[C@H](CO)[C@@H](O)[C@H](O)[C@H]1O` [Compound 9, quercetagetin-3,7-dimethoxy-6-O-β-D-glucopyranoside] gave a pIC50 against alpha-amylase of 4.90.

Regarding `CCCCCC(=O)OCC1OC(Oc2c(O)cc3oc(-c4ccc(O)c(O)c4)c(O)c(=O)c3c2O)C(O)C(O)C1O` (stereo not shown) [Compound 4, minutaside A], the negative-log IC50 (pIC50) at alpha-amylase was 5.04.
